According to patent publication US20250017979A1, “METHODS AND COMPOSITIONS FOR IMPROVING IN VIVO SURVIVAL OF MIDBRAIN DOPAMINE NEURONS” (MEMORIAL SLOAN-KETTERING CANCER CENTER, priority 2022, published 2025):

How the values were obtained:
rodent GSK3β homologs = settings: cited from earlier work
[1] = test system: NURR1::H2B-GFP sorted neurons; test: TNFα / adalimumab treatment of day 25 NURR1::H2B-GFP sorted dopamine neurons in vitro (immunofluorescence, western blot, qRT-PCR); assay type: cell-based, human; settings: co-treatment with TNFα and adalimumab (10 μg/ml), 24 hours
Method: hESC differentiation toward DA neurons. Midbrain dopaminergic neuron differentiation was performed using H9 hESCs, which include Nurr1::GFP. hESCs were grown on VTN-N (Thermo Fisher Scientific)-coated 6-well plates in E8-essential medium. Cells were maintained at 37° C., 5% CO2. hESCs were differentiated with an optimized protocol from a previously reported study (Kim et al., 2021, Cell Stem Cell February 4; 28 (2): 343-355.c5; Riessland et al., 2019, Cell Stem Cell. October 3; 25 (4): 514-530.c8). At day 25 of differentiation from hPSCs iCas9/NURR1::GFP hPSC lines containing sgRNA-pool libraries and sgRNA for dTomato and p53 hPSCs, GFP and dTomato expressed dopamine neurons were sorted using flow cytometry associated cell sorting (FACS). […] TNF-α neutralizing antibody was employed either to co-injection (1 mg/ml) or in vitro cultured dopamine neuron (10 μg/ml).

[2] = test system: amphetamine-induced rotation behaviors; test: D-amphetamine induced rotation assay in unilateral 6-OHDA lesioned PD mouse model after grafting; assay type: in vivo, NSG mice
Method: (§1) 6-OHDA mouse model. Briefly, adult female and male NSG mice (6-12 weeks) were anesthetized with 1%-2% isoflurane mixed in oxygen. 1 μL 6-OHDA (3 mg/ml, in saline with 1% ascorbic acid) was directly injected into the right side of substantial nigra (anterior-posterior [AP]=−2.9 mm, lateral [ML]=1.1 mm, vertical [DV]=4.5 mm, from dura) with rate of 0.5-1 μL per minute to generate unilateral toxin Parkinsonian mouse model. Animals with amphetamine-induced rotation at >6 rotations per min were selected for cell transplantation 4 weeks after 6-OHDA-lesion surgery. Animals were randomly grouped and transplanted with CD sorted neurons vs. CD sorted neurons+adalimumab vs. PBS (sham surgery control).
d-amphetamine induced rotation behavior assays. Amphetamine-induced rotation tests were performed twice before transplantation, and 1, 2, 3, 4, 5, 6 months after transplantation. The mice were injected intraperitoneally with a d-amphetamine in saline (Sigma, 10 mg/kg). After 10 minutes, the rotation

[3] = test system: CD marker sorted dopamine neurons; test: Histology and stereology of dopamine neuron grafts at 6 months in 6-OHDA mice; assay type: in vivo, NSG mice
Method: as §1
Immunohistochemistry. Histology on tissues from mice was performed on frozen sections from xenografts. Mice were anesthetized with pentobarbital and transcardically perfused using heparinized (10 U/mL) PBS (pH 7.4), followed by 4% paraformaldehyde in PBS. The liquid is administered using peristaltic pump to control the rate of the solution delivery to the system. Tissues were post-fixed in ice cold 4% paraformaldehyde for 18 hours sharp and transferred to 30% sucrose until the tissue sink (typically 3-6 days post-), followed by snap freezing in O.C.T (Fisher Scientific, Pittsburgh, PA) or Neg-50 (Thermo Scientific). Brain tissues are all sectioned in 30 μm thick coronal sections using a cryostat and mounted onto a Superfrost plus microscope slides (Fisher Scientific). All the slides are stored at −80° C. for long-term until use. To process for immunolabeling, tissues are washed twice with 1×PBS, followed by permeabilization in 0.5% Triton X-100 in PBS for 10 minutes. Living cells in culture were directly fixed in 4% paraformaldehyde for 18 min, followed by 10 min permeabilization in 0.5% Triton X-100 in PBS. For labeling, cells or tissue sections were immunostained with primary antibodies of interest in 2% BSA in 0.25% Triton X-100 in PBS at 4° C. overnight. Next day appropriate Alexa Fluor secondary antibodies are conjugated at room temperature for 1 hr at a dilution of 1:1,000. Nuclei were counterstained by DAPI.
Stereological analysis. For short-term survival studies, unbiased stercological counts of NURR1::H2B-GFP DA neurons within the striatum (AP+0.5, ML+/−1.8, DV −3.4 to −3.3 from dura) were performed using stereological principles and analyzed with StereoInvestigator software (Microbrightfield, Williston, VT, USA), as previously described. […] For each tissue section analyzed, section thickness was assessed in each sampling site and guard zones of 1 μm were used at the top and bottom of each section. […] For analysis, at least 2-8 sections were evaluated for analysis. […]

[4] = test system: CD marker sorted dopamine neurons; test: 1-month survival of CD49e-low/CD184-high sorted dopamine neuron grafts in striatum of NSG mice, co-injection, stereology; assay type: in vivo
Method: hESC differentiation toward DA neurons. Midbrain dopaminergic neuron differentiation was performed using H9 hESCs, which include Nurr1::GFP. hESCs were grown on VTN-N (Thermo Fisher Scientific)-coated 6-well plates in E8-essential medium. Cells were maintained at 37° C., 5% CO2. hESCs were differentiated with an optimized protocol from a previously reported study (Kim et al., 2021, Cell Stem Cell February 4; 28 (2): 343-355.c5; Riessland et al., 2019, Cell Stem Cell. October 3; 25 (4): 514-530.c8). At day 25 of differentiation from hPSCs iCas9/NURR1::GFP hPSC lines containing sgRNA-pool libraries and sgRNA for dTomato and p53 hPSCs, GFP and dTomato expressed dopamine neurons were sorted using flow cytometry associated cell sorting (FACS). The sorted hPSCs were either injected into mice or cultured for subsequent experiments until use. Furthermore, double sorting approach with CD49e-low and CD184-high was applied to enrich post-mitotic dopamine neuron at day 25 differentiation derived from hPSC using FACS, and sorted cells were used for transplantation and in vitro culture. TNF-α neutralizing antibody was employed either to co-injection (1 mg/ml) or in vitro cultured dopamine neuron (10 μg/ml).
Intracranial transplantation. hESCs-derived DA neurons that were sorted based on either NURR1::H2B-GFP or CD49e low and CD184 high were resuspended in 100,000+ cells/μL in neurobasal medium with 200 mM L-glutamine and 100 mM ascorbic acid (AA) transplantation medium (without human albumin or kedbumin 25%). […]
Stereological analysis. For short-term survival studies, unbiased stercological counts of NURR1::H2B-GFP DA neurons within the striatum (AP+0.5, ML+/−1.8, DV −3.4 to −3.3 from dura) were performed using stereological principles and analyzed with StereoInvestigator software (Microbrightfield, Williston, VT, USA), as previously described. […] For each tissue section analyzed, section thickness was assessed in each sampling site and guard zones of 1 μm were used at the top and bottom of each section. […]

[5] = 6 months old graft, TH+ population
[6] = 6 months post transplantation, vs PBS co-injection

Cc1c[nH]c(-c2cnc(NCCNc3ccc(C#N)cn3)nc2-c2ccc(Cl)cc2Cl)n1 [CHIR99021, 6-(2-(4-(2,4-dichlorophenyl)-5-(4-methyl-1H-imidazol-2-yl)pyrimidin-2-ylamino)ethylamino) nicotinonitrile]
IC50 values against rodent GSK3β homologs (rodent GSK3β homologs): nanomolar

adalimumab
TNFα-induced inductions of p53 and p53 downstream genes (p21, PUMA) [1]: abolished
functional recovery of amphetamine-induced rotation ([2]; 6 months post grafting, CD sorted neurons with or without adalimumab): Robust functional recovery
time course and completeness of functional rescue vs CD sorted neurons alone ([2]; adalimumab co-injected mDA neurons, 1-6 months): trend towards an earlier and more complete functional rescue
fraction of CALB1 expressing A10 dopamine neuron subtype [3, 5]: without affecting
proportion of ALDH1A1+ A9 mDA neuron subtype [3, 5]: significant increase
overall graft size [3, 6]: significantly increased
total numbers of surviving dopamine neurons (TH) [3, 6]: significantly increased
Stereological counts of NURR1::GFP+ cells ([4]; 1 month post grafting, mean and S.E.M, n=5, p=0.01 vs PBS): 12,423 (mean)+1,859 (S.E.M) per 100,000 cells injected
volume of the graft ([4]; 1 month post grafting, per 100,000 cells, mean, n=5, p=0.0085): 0.1175 mm^3
survival of CD marker sorted dopamine neurons in vivo post-transplantation ([4]; co-injection (1 mg/ml), vs PBS): significantly improved
